From patent publication US20240293352A1 (priority 2021, published 2024)

system: oncolytic RNA viruses including vesicular stomatitis virus (VSV) and measles; settings: cited from earlier work

Row | Compound | Replication and spread of oncolytic RNA viruses (in words)
1 | Cc1occc(=O)c1[O-].Cc1occc(=O)c1[O-].[O]=[V+2] [BMOV, bismaltolatoxovanadate] | improve the replication and spread of oncolytic RNA viruses
2 | [O]=[V]([O-])([O-])[O-] [orthovanadate] | improve the replication and spread of oncolytic RNA viruses

system: VSVD51-GFP in 786-0 cells; assay type: cell-based, human; settings: not given

Row | Compound | Approximate Peak Viral Sensitizer Dose [µM] | Viral sensitization activity / VSVD51 spread (in words)
3 | [O]=[V]([O-])([O-])[O-] [Vanadate, vanadate, reference compound] | 200 | increase in GFP foci
4 | vanadium (IV) citrate [CDOS139] | – | exhibited viral sensitization activity
5 | vanadium (V) citrate [CDOS140] | 30 | exhibited viral sensitization activity
6 | vanadium (V) citrate peroxo [CDOS141] | 50 | exhibited viral sensitization activity
